Measurements as given in ChEMBL document CHEMBL3217585, “A rational design to create hybrid -sheet breaker peptides to inhibit aggregation and toxicity of amyloid-” (Medchemcomm, 2011).
*1 amine or outer side, *2 acyl side, *3 side chain or, on linkers, in order; H or OH if unused. Where a SMILES comes first, the peptide text is derived from it. The star is where a group is joined. X7 = O=C(OC[C@@H](COS(=O)(=O)O)OS(=O)(=O)O)*; X6 = O=C(OC[C@H](COS(=O)(=O)O)OS(=O)(=O)O)*; X12 = O=S(=O)(O)OC[C@H](CN*)OS(=O)(=O)O; X2 = O=S(=O)(O)OC[C@@H](CN*)OS(=O)(=O)O; NH(3-hydroxypropyl) = OCCCN*; X3 = O=C(OCCCOS(=O)(=O)O)*; X10 = O=C(OC[C@@H](O)CO)*; X11 = O=C(OC[C@H](O)CO)*; X9 = O=S(=O)(O)OCCCCN*; X5 = O=S(=O)(O)OCCCN*; CO = O=C([*:1])[*:2]; NH(CH2)4OH = OCCCCN*; X14 = OC[C@H](O)CN*; X4 = OC[C@@H](O)CN*; X13 = O=C(OCCCO)*

What was measured:
[1] = biological target: Amyloid-beta precursor protein (Homo sapiens) (UniProt P05067); assay: Inhibition of amyloid beta (1 to 42)-mediated cytotoxicity in HBP assessed as cell death at 1:5 protein to compound ratio after 6 days by fluorescence assay relative to control; set-up: scale not given: the % may be the effect or the level left
[2] = biological target: Amyloid-beta precursor protein (Homo sapiens) (UniProt P05067); assay: Inhibition of amyloid beta (1 to 42) aggregation in HBP assessed as beta sheet formation at 1:20 protein to compound ratio after 48 hrs by Th-T fluorescence assay relative to control; set-up: scale not given: the % may be the effect or the level left
[3] = Cytotoxicity against HBP assessed as cell death at 50 uM after 6 days by fluorescence assay; conditions: human, 144 h
[4] = biological target: Amyloid-beta precursor protein (Homo sapiens) (UniProt P05067); assay: Inhibition of monomeric amyloid beta (unknown origin)-mediated cytotoxicity at 1:5 protein to compound ratio by cell-based assay relative to control; conditions: concentration not given here
[5] = biological target: Amyloid-beta precursor protein (Homo sapiens) (UniProt P05067); assay: Inhibition of monomeric amyloid beta (unknown origin) aggregation at 1:20 protein to compound ratio relative to control; conditions: concentration not given here

Sequence of Amyloid-beta precursor protein (Homo sapiens) (P05067 whole entry): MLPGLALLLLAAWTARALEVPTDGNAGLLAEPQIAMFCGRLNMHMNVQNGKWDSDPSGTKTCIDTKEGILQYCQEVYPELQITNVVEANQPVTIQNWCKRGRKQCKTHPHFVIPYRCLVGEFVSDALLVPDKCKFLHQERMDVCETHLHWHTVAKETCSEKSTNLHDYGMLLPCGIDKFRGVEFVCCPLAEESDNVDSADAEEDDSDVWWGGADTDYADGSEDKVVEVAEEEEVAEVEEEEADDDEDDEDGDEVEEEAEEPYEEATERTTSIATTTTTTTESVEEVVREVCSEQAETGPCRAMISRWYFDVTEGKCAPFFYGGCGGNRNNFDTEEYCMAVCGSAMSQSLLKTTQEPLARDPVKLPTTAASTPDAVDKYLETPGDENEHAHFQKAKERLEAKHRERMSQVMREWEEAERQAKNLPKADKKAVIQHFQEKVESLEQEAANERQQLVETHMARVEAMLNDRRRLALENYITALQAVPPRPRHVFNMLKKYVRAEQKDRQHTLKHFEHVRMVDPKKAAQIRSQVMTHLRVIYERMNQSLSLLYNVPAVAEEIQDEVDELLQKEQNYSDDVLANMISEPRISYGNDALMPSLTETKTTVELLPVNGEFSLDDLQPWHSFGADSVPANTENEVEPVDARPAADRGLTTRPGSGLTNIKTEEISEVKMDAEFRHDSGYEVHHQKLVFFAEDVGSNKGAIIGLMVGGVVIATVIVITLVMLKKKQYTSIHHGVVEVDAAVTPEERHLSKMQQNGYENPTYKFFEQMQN

Compound CC(C)C[C@H](NC(=O)NCCCOS(=O)(=O)O)C(=O)N1CCC[C@H]1C(=O)N[C@@H](Cc1ccccc1)C(=O)N[C@@H](Cc1ccccc1)C(=O)N[C@@H](CC(=O)O)C(N)=O ({X5-CO}-LPFFD-NH2) has an Activity [1] of 95.9% and an Activity [2] of 83%.

With CC(C)C[C@H](NC(=O)NCCCO)C(=O)N1CCC[C@H]1C(=O)N[C@@H](Cc1ccccc1)C(=O)N[C@@H](Cc1ccccc1)C(=O)N[C@@H](CC(=O)O)C(N)=O ({NH(3-hydroxypropyl)-CO}-LPFFD-NH2) the Activity [1] was 96.1% and the Activity [2] was 82.7%.

Work on CC(C)C[C@H](NC(=O)OCCCOS(=O)(=O)O)C(=O)N1CCC[C@H]1C(=O)N[C@@H](Cc1ccccc1)C(=O)N[C@@H](Cc1ccccc1)C(=O)N[C@@H](CC(=O)O)C(N)=O (X3-LPFFD-NH2) yielded an Activity [1] of 107% and an Activity [2] of 107%.

CC(C)C[C@H](NC(=O)NC[C@@H](O)CO)C(=O)N1CCC[C@H]1C(=O)N[C@@H](Cc1ccccc1)C(=O)N[C@@H](Cc1ccccc1)C(=O)N[C@@H](CC(=O)O)C(N)=O ({X14-CO}-LPFFD-NH2) showed an Activity [1] of 96.6% and an Activity [2] of 98.7%.

Compound CC(C)C[C@H](NC(=O)OCC(COS(=O)(=O)O)CS(=O)(=O)O)C(=O)N1CCC[C@@H]1C(=O)N[C@@H](Cc1ccccc1)C(=O)N[C@@H](Cc1ccccc1)C(=O)N[C@@H](CC(=O)O)C(=O)O (some centres undefined) has an Activity [1] of 93.8% and an Activity [2] of 94.7%.

With CC(C)C[C@H](NC(=O)NCCCCO)C(=O)N1CCC[C@H]1C(=O)N[C@@H](Cc1ccccc1)C(=O)N[C@@H](Cc1ccccc1)C(=O)N[C@@H](CC(=O)O)C(N)=O ({NH(CH2)4OH-CO}-LPFFD-NH2) the Activity [1] was 99.6% and the Activity [2] was 100%.

CC(C)C[C@H](NC(=O)OCC(CO)CO)C(=O)N1CCC[C@@H]1C(=O)N[C@@H](Cc1ccccc1)C(=O)N[C@@H](Cc1ccccc1)C(=O)N[C@@H](CC(=O)O)C(=O)O gave an Activity [1] of 94.8% and an Activity [2] of 87.9%.

CC(C)C[C@H](NC(=O)NC[C@H](COS(=O)(=O)O)OS(=O)(=O)O)C(=O)N1CCC[C@H]1C(=O)N[C@@H](Cc1ccccc1)C(=O)N[C@@H](Cc1ccccc1)C(=O)N[C@@H](CC(=O)O)C(N)=O ({X2-CO}-LPFFD-NH2) gave an Activity [1] of 92% and an Activity [2] of 120%.

Work on CC(C)C[C@H](NC(=O)OC[C@H](COS(=O)(=O)O)OS(=O)(=O)O)C(=O)N1CCC[C@H]1C(=O)N[C@@H](Cc1ccccc1)C(=O)N[C@@H](Cc1ccccc1)C(=O)N[C@@H](CC(=O)O)C(N)=O (X6-LPFFD-NH2) yielded an Activity [1] of 91.4% and an Activity [2] of 95.1%.

CC(C)C[C@H](NC(=O)NCCCCOS(=O)(=O)O)C(=O)N1CCC[C@H]1C(=O)N[C@@H](Cc1ccccc1)C(=O)N[C@@H](Cc1ccccc1)C(=O)N[C@@H](CC(=O)O)C(N)=O ({X9-CO}-LPFFD-NH2) showed an Activity [1] of 96.5% and an Activity [2] of 100%.

With CC(C)C[C@H](NC(=O)OCC(CO)CO)C(=O)N1CCC[C@H]1C(=O)N[C@@H](Cc1ccccc1)C(=O)N[C@@H](Cc1ccccc1)C(=O)N[C@@H](CC(=O)O)C(=O)O the Activity [3] was “Non-toxic”, the Activity [1] was 81.1% and the Activity [2] was 76.4%.

Compound CC(C)C[C@H](NC(=O)OC[C@@H](O)CO)C(=O)N1CCC[C@H]1C(=O)N[C@@H](Cc1ccccc1)C(=O)N[C@@H](Cc1ccccc1)C(=O)N[C@@H](CC(=O)O)C(N)=O (X10-LPFFD-NH2) has an Activity [1] of 89.7% and an Activity [2] of 97%.

CC(C)C[C@H](NC(=O)NC[C@H](O)CO)C(=O)N1CCC[C@H]1C(=O)N[C@@H](Cc1ccccc1)C(=O)N[C@@H](Cc1ccccc1)C(=O)N[C@@H](CC(=O)O)C(N)=O ({X4-CO}-LPFFD-NH2) gave an Activity [1] of 92.5% and an Activity [2] of 98.7%.

With CC(C)C[C@H](NC(=O)OC[C@H](O)CO)C(=O)N1CCC[C@H]1C(=O)N[C@@H](Cc1ccccc1)C(=O)N[C@@H](Cc1ccccc1)C(=O)N[C@@H](CC(=O)O)C(N)=O (X11-LPFFD-NH2) the Activity [1] was 91.6% and the Activity [2] was 100%.

In the case of CC(C)C[C@H](NC(=O)OCCCO)C(=O)N1CCC[C@H]1C(=O)N[C@@H](Cc1ccccc1)C(=O)N[C@@H](Cc1ccccc1)C(=O)N[C@@H](CC(=O)O)C(N)=O (X13-LPFFD-NH2), the Activity [1] is reported as 93% and the Activity [2] is reported as 92.9%.

In the case of Ac-LPFFD-NH2, the Activity [1] is reported as 51.8%, the inhibition [4] is reported as 50% and the Activity [2] is reported as 51.9%. The inhibition [5] was 50%.

In the case of CC(C)C[C@H](NC(=O)NC[C@@H](COS(=O)(=O)O)OS(=O)(=O)O)C(=O)N1CCC[C@H]1C(=O)N[C@@H](Cc1ccccc1)C(=O)N[C@@H](Cc1ccccc1)C(=O)N[C@@H](CC(=O)O)C(N)=O ({X12-CO}-LPFFD-NH2), the Activity [1] is reported as 92% and the Activity [2] is reported as 127%.

CC(C)C[C@H](NC(=O)OC[C@@H](COS(=O)(=O)O)OS(=O)(=O)O)C(=O)N1CCC[C@H]1C(=O)N[C@@H](Cc1ccccc1)C(=O)N[C@@H](Cc1ccccc1)C(=O)N[C@@H](CC(=O)O)C(N)=O (X7-LPFFD-NH2) gave an Activity [1] of 95.9% and an Activity [2] of 96.3%.
